This is an account of results in PMC12169455, “Discovery of Indole-Based PDE5 Inhibitors: Synthesis and Pharmacological Evaluation” (ACS Medicinal Chemistry Letters, 2025).

As a reminder, the inhibition is the relative decrease from the control value, in per cent. For orientation: IC50 means the concentration that inhibits the measured activity by half. For orientation: Papp means the rate of passage across a membrane or cell layer, normalised by area and donor concentration. Read a low Papp as poor permeation.

Data set [1] deals with Recombinant human PDE5 (Homo sapiens, UniProt O76074). In words: PDE5 enzymatic assay coupled with LC/MS analysis for cGMP determination. The format is biochemical.
Data set [2] is described as follows: PAMPA using porcine brain lipids (BBB permeability). The settings on record: pig. A general note: The PAMPA barrier holds no transporters, so it reflects passive diffusion.
In data set [3] the test system is MCF-7 mammary epithelial adenocarcinoma cells. In words: MTT cytotoxicity assay. The settings on record: MCF-7, MTT. The format is cell-based. The procedure: The cytotoxicity effect of compound 14a was investigated to validate its suitability as a lead compound for further drug development. The cancer cell line MCF-7 was used in an MTT assay assessing cell metabolic activity (see Supporting Information for materials and methods).
5 Cytotoxicity assay of compound 14a. The compound (0.1–100 μM) was dissolved in 20% DMSO in saline; ns = nonsignificant. […]
µM concentrations. […] The cells
MultiScreen® filter plate (cat. no. MAIPNTR10, Millipore). Sample solutions (300 µL, 50 µM, […]
at room temperature for 18 hours. Samples from the acceptor wells were collected and analyzed by HPLC (Nexera-i LC-2040C Plus, Shimadzu). Equilibrium solutions of compounds 5e, 14a, […]
HPLC. The assay was performed in triplicate. […]
used for the HPLC analysis. […]
apparent permeability (Papp) using the following equation:
P = C × ― ln 1 ― AUCa cm/s […]
this protocol, the donor volume (Vd) is 0.3 cm3, acceptor volume (Va) is 0.15 cm3, membrane
In general terms: Formazan colour is commonly taken as a measure of viable cells.

Setting [4] is: compound tested at 10 μM, average of at least three independent experiments, read-out: % PDE5 Inhibition ± SEM.
[5] abbreviates: compound concentration range 0.1 nM – 100 μM, substrate concentration 150 nM, read-out: PDE5 IC50 ± SEM.
Where [6] appears, read: read-out: % PDE5 Inhibition ± SEM.
Where [7] appears, read: Papp (RSD), tested at 50 μM, 18 hours, n.d. = not detected.
The mark [8] stands for this setting: Papp relative to the BBB-permeable cutoff, higher than cutoff = BBB-permeable.
The mark [9] stands for this setting: PDE5 IC50 ± SEM, compound concentration range 0.1 nM – 100 μM, substrate concentration 150 nM.

Read-outs that look alike come from different tables or passages of the source.

Turning to `COc1ccc(Nc2cn(S(=O)(=O)c3ccc(C)cc3)c3ccc(C#N)cc23)cc1Cl` [Compound 10], the inhibition at 10 µM in data set [1] (setting [4]) worked out at 73.4 ± 7.5%.

As to `Cn1cc(CNCc2ccc3c(c2)OCO3)c2cc(C#N)ccc21` [Compound 5i], in data set [1] (setting [4]), the inhibition at 10 µM amounted to 23.6 ± 2.24%.

`COc1ccc(CNCc2cn(C)c3ccc(C#N)cc23)cc1Cl` [Compound 5h]: the IC50 in data set [1] (setting [5]) worked out at 1250 ± 150 nM. For the same compound, the inhibition at 10 µM in data set [1] (setting [4]) turned out to be 72.2 ± 1.25%.

Consider `CCCc1nn(C)c2c(=O)[nH]c(-c3cc(S(=O)(=O)N4CCN(C)CC4)ccc3OCC)nc12` [Sildenafil, sildenafil, reference compound], for which the inhibition at 0.01 µM in data set [1] (setting [6]) came out at 58.2 ± 2.33%.

As for `CCCn1cc(CNc2ccc(OC)c(Cl)c2)c2cc(C#N)ccc21` [Compound 5b], in data set [1] (setting [5]), the IC50 is 2460 ± 130 nM. Moreover, the inhibition at 10 µM in data set [1] (setting [4]) was 94.8 ± 2.58%.

As to `COc1ccc(CNC(=O)c2cn(CCN(C)C)c3ccc(C#N)cc23)cc1Cl` [Compound 14a], the Papp at 18 h, 50 µM in data set [2] (setting [7]) is 2.83 ×10⁻⁶ cm/s; in data set [2] (setting [8]) it was above 2 ×10⁻⁶ cm/s. In addition, the “biologically safe up to (cytotoxicity assay)” value in data set [3] was “up to 100 μM”. Further, in data set [3] (after 72 h incubation, safe at all other concentrations tested (0.1–100 μM)), the “concentration showing a cytotoxic effect” value was 100 µM. Besides, the IC50 came out at 16.1 nM in data set [1] (PDE5 IC50, value quoted in abstract and conclusion); 16.1 ± 7 nM in data set [1] (setting [9]). Also, the “increase in biological activity (PDE5) on replacing amine with amide” value in data set [1] (compared with amine analogues) is recorded as 2 log unit. For the same compound, the inhibition at 0.5 µM in data set [1] (setting [6]) turned out to be 101 ± 4.99%.

As for `COc1ccc(NCc2cn(CCN(C)C)c3ccc(C#N)cc23)cc1Cl` [Compound 5e], the Papp at 18 h, 50 µM was 5.62 ×10⁻⁶ cm/s in data set [2] (setting [7]) and above 2 ×10⁻⁶ cm/s in data set [2] (setting [8]). Moreover, the inhibition at 10 µM in data set [1] (setting [4]) worked out at 26.2 ± 3.85%.

Take `COc1ccc(NCc2cn(CC(C)C)c3ccc(C#N)cc23)cc1Cl` [Compound 5d]: the IC50 in data set [1] (setting [5]) worked out at 1720 ± 720 nM. Besides, the inhibition at 10 µM in data set [1] (setting [4]) was 99.2 ± 2.72%.

On to `COc1ccc(NC(=O)c2cn(CCN(C)C)c3ccc(C#N)cc23)cc1Cl` [Compound 14b], for which, in data set [1] (setting [9]), the IC50 was found to be 10600 ± 1990 nM. The inhibition at 10 µM in data set [1] (setting [6]) was determined as 47.5 ± 2.33%.

As to `COc1ccc(NCc2cn(CC3CC3)c3ccc(C#N)cc23)cc1Cl` [Compound 5c], in data set [1] (setting [5]), the IC50 is 1370 ± 300 nM. In addition, in data set [1] (setting [4]), the inhibition at 10 µM is 86.3 ± 1.97%.

On to `COCCn1cc(CNc2ccc(OC)c(Cl)c2)c2cc(C#N)ccc21` [Compound 5f], for which the IC50 in data set [1] (setting [5]) came to 10400 ± 150 nM. Further, the inhibition at 10 µM in data set [1] (setting [4]) was 74.5 ± 1.95%.

As to `COc1ccc(NCc2cn(C)c3ccc(C#N)cc23)cc1Cl` [Compound 5a], in data set [1] (setting [5]), the IC50 was 2650 ± 480 nM. The inhibition at 10 µM in data set [1] (setting [4]) turned out to be 77 ± 4.87%.

Regarding `Cn1cc(CNCc2ccc(Cl)c(C(F)(F)F)c2)c2cc(C#N)ccc21` [Compound 5k], in data set [1] (setting [5]), the IC50 stood at 1770 ± 390 nM. Further, in data set [1] (setting [4]), the inhibition at 10 µM worked out at 73.4 ± 4.13%.

On to `COc1ccc(CNC(=O)c2cn(CCN(C)C)c3ccccc23)cc1Cl` [Compound 14c], for which, in data set [1] (setting [9]), the IC50 was 3650 ± 970 nM. Moreover, the “PDE5 inhibition effect compared to compound 5e” value in data set [1] (at 10 μM) is listed as “about double”. The inhibition at 10 µM in data set [1] (setting [6]) came out at 66.1 ± 2.34%.

As for `COc1ccc(NCc2cn(Cc3ccncc3)c3ccc(C#N)cc23)cc1Cl` [Compound 5g], the inhibition at 10 µM in data set [1] (setting [4]) worked out at 54.5 ± 4.21%.

Take `Cn1cc(CNCCN2CCOCC2)c2cc(C#N)ccc21` [Compound 5j]: in data set [1] (setting [4]), the inhibition at 10 µM came out at 10.5 ± 1.69%.

Regarding `COc1ccc(CN(C)C(=O)c2cn(CCN(C)C)c3ccc(C#N)cc23)cc1Cl.Cl` [Compound 14d], the IC50 in data set [1] (setting [9]) is 4900 ± 680 nM. Further, the “reduction of the enzymatic activity (PDE5) compared to 14a” value in data set [1] (amide hydrogen replaced by methyl) was found to be 2 log unit. The inhibition at 10 µM in data set [1] (setting [6]) stood at 52 ± 6.68%.
